From article PMC3622673, “Screening Compounds with a Novel High-Throughput ABCB1-Mediated Efflux Assay Identifies Drugs with Known Therapeutic Targets at Risk for Multidrug Resistance Interference” (PLoS ONE, 2013)
Counter-ions that a name gives are not always drawn. Like-named read-outs stand apart in the source and are kept apart here.

Experiments:
[1] = molecular target: T1, ABCB1 (Homo sapiens, UniProt P08183); experiment: Cell and fluorescent imaging-based ABCB1-mediated efflux assay (IncuCyte FLR) in KB-V1 cells; settings: for inhibition at 10 µM: human;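 for all read-outs here: ABCB1-overexpressing KB-V1 cells, live-cell fluorescence imaging of retained calcein (from calcein AM) or MitoTracker Green FM, no preincubation with inhibitor, XR9576 as positive control, calcein AM alone as background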
Protocol: (§2) The cell- and fluorescent imaging-based ABCB1-mediated efflux assays were carried out using ABCB1-overexpressing KB-V1 cells and calcein AM. Calcein AM was diluted in the culture media and then added directly to the cells grown in 96- or 384-well plates at the indicated final concentrations. Additionally, MitoTracker® Green FM was used as a fluorescent substrate in the ABCB1-mediated efflux assay. […] There was no incubation time after addition of the ABCB1 inhibitors. The only time delay between the addition of the inhibitors/drugs and the addition of calcein AM was the sample handling time. […] All wells contained 0.1% DMSO; except when the drugs were serial-diluted, in which the wells with the highest drug concentration contained 0.1% DMSO and the rest of wells contained diluted DMSO from the same working stock solution. The cell culture vessels were placed in a fluorescent and phase-contrast live cell imaging system, the IncuCyte^TMFLR (Essen BioScience, Ann Arbor, MI), in a 37°C incubator supplemented with 5% CO2. Both fluorescent and phase-contrast images (750×950 µm) were taken by the IncuCyte^TMFLR at the indicated time intervals. The approximate number of cells scanned was 200–600 cells per image. Auto-fluorescence of the compounds was determined by treating the cells with the drug candidates in the absence of calcein AM and fluorescence was measured using the IncuCyte^TMFLR and a fluorescent plate reader (Infinite 200 PRO, Tecan System, Inc., San Jose, CA).
(§3) The IncuCyte^TMFLR was programmed to take 4 images per well of a 96-well plate or a single image per well of a 384-well plate. It takes 27 minutes to scan an entire 96-well plate at 4 images per well and 27 minutes to scan an entire 384-well plate at one image per well, respectively. Because intracellular accumulation of calcein is time sensitive, only 3 to 6 columns of a 96-well plate were used for a single experiment. Three positive control (XR9576) wells and three background (calcein AM only) wells were included in each 96-well plate or in each column in the 384-well plates. All experiments were repeated at least twice unless otherwise indicated.
(§4) The IncuCyte^TMFLR software provides the mean of the total fluorescence intensity (mean fluorescence intensity), obtained by averaging fluorescent intensities from all the pixels in the image(s) from each well. The automatically generated mean fluorescence intensity is not corrected for the background fluorescence, which can often lead to distorted outputs. Additional software, the Object Counting v2.0 Analysis software provided by the IncuCyte^TMFLR, can assist further quantification and analysis of the fluorescent images. Using this software, a segmentation mask was generated to separate fluorescent (foreground) and non-fluorescent (background) objects so that the sum of the fluorescent intensity of the positive cells can be calculated without the interference from the background fluorescence. The Object Summed Intensity per mm^2 from the metrix menu was chosen to indicate the background corrected fluorescent intensity of each well and designated as the object intensity.
(§5) The relative inhibition of each compound on calcein AM efflux was calculated by the following equation: [drawing 1] where X represents the mean fluorescence intensities or the object intensities, and T denotes the test compound. The final results were normalized to either the maximum values of the test compounds in the dose-response experiments or to the values from XR9576 (0.2 µM) treated cells.

[2] = molecular target: T1, ABCB1; experiment: in vitro
Protocol: as §2, §3, §4, §5

[3] = molecular target: T1, ABCB1
Protocol: as §2, §3, §4, §5

[4] = molecular target: T1, ABCB1; experiment: Flow cytometry-based ABCB1-mediated efflux assay in KB-V1 cells; settings: compound 5 µM, calcein AM 1 µM
Protocol: (§6) An ABCB1-mediated calcein AM efflux assay was also performed with KB-V1 cells and evaluated by flow cytometry as described previously [32]. KB-V1 cells were detached by brief trypsin treatment, followed by addition of medium containing 10% serum to neutralize the trypsin. The detached cells were collected by centrifugation, aliquoted at 500,000 cells/tube, and incubated with the test compounds at the indicated concentrations and calcein AM (1 µM) or MitoTracker® Green FM for 10 minutes in a 37°C water bath. After incubation, the cells were collected by centrifugation at 800xg for 5 minutes and resuspended in PBS/0.1% BSA. The fluorescent substrates retained in KB-V1 cells were detected by flow cytometry (BD FACSCalibur, BD Biosciences, Franklin Lakes, NJ). The data were analyzed with FlowJo 7.2.2 (Tree Star, Inc., Ashland, OR) and presented as histograms. […] Total number of cells counted per sample was 10,000.

[5] = molecular target: T1, ABCB1; experiment: Photolabeling of ABCB1 with [125I]IAAP; assay type: binding; design: made in house; host or cells: Hifive insect cells (crude / plasma membranes); settings: compound 20 µM, membranes from Hifive cells overexpressing human ABCB1, autoradiograph
Protocol: The interaction of selected compounds with ABCB1 was assessed by an in vitro photolabeling assay as previously described [32].

[6] = tested on: KB-V1 cells; experiment: Cytotoxicity to KB-V1 cells seen in the imaging assay; assay type: cell-based, human
Description: (§1) Compounds that auto-fluoresced were excluded from further analysis.

[7] = molecular target: T1, ABCB1; remark: listed apart in the source
Protocol: as §6

[8] = tested on: KB-3-1 cells; experiment: Cell imaging-based calcein accumulation in parental KB-3-1 cells; design: species or system human; settings: 1 µM calcein AM, 1 hour, mean fluorescence intensities
Protocol: ABCB1-overexpressing KB-V1 cells, previously selected and maintained with vinblastine (1 µg/ml), and the parental line, KB-3-1 cells, were cultured in DMEM supplemented with 10% FBS [26], [27], [28]. Vinblastine was removed from the KB-V1 cell culture medium 2 to 3 days before each experiment. For the efflux assay, the cells were plated at either 20,000 cells per well in 96-well (100 µl/well) or 2,500 cells per well in 384-well (40 µl/well) flat, clear bottom, white or black-walled polystyrene tissue culture plates (uncoated) (Corning Life Sciences, Tewksbury, MA) and incubated at 37°C. After the cell confluence reached 30–80% (1 to 3 days in culture), the cell and fluorescent imaging-based efflux assays were performed. The ABCB1 overexpressing HCT-15-Pgp cells, used for the cytotoxicity assays, were also cultured in DMEM supplemented with 10% FBS [29]. All cell lines were gifts from Dr. Michael M. Gottesman (NCI, Bethesda, MD).
as §1

[9] = Cell viability assay (CCK-8); settings: human, HCT-15-Pgp cells
Protocol: HCT-15-Pgp cells were plated and cultured in 96-well plates for 1 or 2 days, until they reached 50–80% confluency. […] Cell viability was examined using the Cell Counting Kit-8 (CCK-8, Dojindo Molecular Technologies, Inc., Rockville, MD); which functions similar to MTT assays by reduction of the tetrazolium salt, WST-8, to yield a yellow-colored and water-soluble formazan dye (measured at 450 nm).

[10] = ABCB1-overexpressing KB-V1 cells, probe calcein AM (1 µM)

T1 sequence (P08183 whole entry): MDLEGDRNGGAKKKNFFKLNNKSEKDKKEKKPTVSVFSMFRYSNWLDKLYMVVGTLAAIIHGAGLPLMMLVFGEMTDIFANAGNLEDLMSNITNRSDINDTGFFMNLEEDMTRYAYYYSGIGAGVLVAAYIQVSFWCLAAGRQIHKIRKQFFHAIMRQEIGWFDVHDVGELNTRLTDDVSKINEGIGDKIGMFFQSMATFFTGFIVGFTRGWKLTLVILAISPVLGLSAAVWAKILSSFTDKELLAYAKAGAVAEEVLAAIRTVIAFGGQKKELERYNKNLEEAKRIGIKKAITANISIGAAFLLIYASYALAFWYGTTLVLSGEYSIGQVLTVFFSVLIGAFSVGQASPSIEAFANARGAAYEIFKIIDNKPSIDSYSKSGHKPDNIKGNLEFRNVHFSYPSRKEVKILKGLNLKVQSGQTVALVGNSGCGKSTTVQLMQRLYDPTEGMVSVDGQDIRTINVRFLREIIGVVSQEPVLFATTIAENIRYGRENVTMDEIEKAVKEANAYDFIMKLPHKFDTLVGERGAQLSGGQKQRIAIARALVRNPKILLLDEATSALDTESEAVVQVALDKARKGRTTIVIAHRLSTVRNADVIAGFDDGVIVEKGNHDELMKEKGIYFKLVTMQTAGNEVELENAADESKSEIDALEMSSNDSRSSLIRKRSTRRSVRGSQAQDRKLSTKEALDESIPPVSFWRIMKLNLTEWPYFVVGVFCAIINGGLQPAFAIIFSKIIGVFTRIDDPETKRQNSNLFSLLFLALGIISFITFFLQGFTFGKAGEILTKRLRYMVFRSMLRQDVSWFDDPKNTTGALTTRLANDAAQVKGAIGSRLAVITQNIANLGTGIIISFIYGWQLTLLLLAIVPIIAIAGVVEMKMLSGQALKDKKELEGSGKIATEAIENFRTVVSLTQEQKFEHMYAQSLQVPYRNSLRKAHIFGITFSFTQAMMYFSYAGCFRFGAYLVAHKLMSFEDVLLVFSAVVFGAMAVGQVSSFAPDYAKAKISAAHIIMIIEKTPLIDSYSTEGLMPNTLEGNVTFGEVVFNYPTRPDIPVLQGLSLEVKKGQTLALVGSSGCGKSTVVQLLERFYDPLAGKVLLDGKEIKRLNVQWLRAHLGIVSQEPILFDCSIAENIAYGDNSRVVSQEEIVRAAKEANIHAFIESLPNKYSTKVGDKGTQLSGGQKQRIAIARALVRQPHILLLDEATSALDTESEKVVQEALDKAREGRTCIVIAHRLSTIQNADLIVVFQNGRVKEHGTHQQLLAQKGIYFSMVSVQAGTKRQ

SMILES | inhibition at 10 µM [2] [%] | inhibition at 10 µM [1, 10] [%] | also measured
Cn1c(=O)n(-c2ccc(C(C)(C)C#N)cc2)c2c3cc(-c4cnc5ccccc5c4)ccc3ncc21 [BEZ235] | ≥ 50 | – | IC50 [1]: 20.1 µM; Inhibition of ABCB1-mediated calcein AM efflux in dose-response experiment [3]: dose-dependent inhibition
COc1cc2nccc(Oc3ccc(NC(=O)Nc4cc(C)on4)c(Cl)c3)c2cc1OC [AV-951 (Tivozanib), Tivozanib] | – | ≥ 50 | –
O=C(Nc1cccc(Cl)c1)Nc1ncc(CCNc2ncnc3ccsc23)s1 [SNS-314 Mesylate] | ≥ 50 | – | –
COc1ccc2c3c([nH]c2c1)[C@H](C=C(C)C)N1C(=O)[C@@H]2CCCN2C(=O)[C@@H]1C3 [FTC, fumitremorgin C] | – | – | Inhibition of ABCB1-mediated calcein AM efflux, flow cytometry [4]: neither ABCG2 specific inhibitor FTC nor ABCC1 specific inhibitor MK-571 interfered
CO[C@H]1C[C@@H]2CC[C@@H](C)[C@@](O)(O2)C(=O)C(=O)N2CCCC[C@H]2C(=O)O[C@H]([C@H](C)C[C@@H]2CC[C@@H](OCCO)[C@H](OC)C2)CC(=O)[C@H](C)/C=C(\C)[C@@H](O)[C@@H](OC)C(=O)[C@H](C)C[C@H](C)/C=C/C=C/C=C/1C [Everolimus (RAD001), Everolimus] | – | ≥ 50 | –
CO[C@H]1C[C@@H]2CC[C@@H](C)[C@@](O)(O2)C(=O)C(=O)N2CCCC[C@H]2C(=O)O[C@H]([C@H](C)C[C@@H]2CC[C@@H](OP(C)(C)=O)[C@H](OC)C2)CC(=O)[C@H](C)/C=C(\C)[C@@H](O)[C@@H](OC)C(=O)[C@H](C)C[C@H](C)/C=C/C=C/C=C/1C [Deforolimus (MK-8669), Deforolimus] | ≥ 50 | – | –
O=C(c1ccc(Nc2nccc(-c3cc4ccccc4s3)n2)cc1)N1CCC(N2CCCC2)CC1 [IKK 16] | – | – | Inhibition of ABCB1-mediated calcein AM efflux, flow cytometry [4]: inhibited; Competition with [125I]IAAP for direct binding to ABCB1 [5]: successfully competed; IC50, inhibition of ABCB1-mediated calcein AM efflux [3]: cannot be calculated from the data; Inhibition of ABCB1-mediated calcein AM efflux in dose-response experiment [3]: dose-dependent inhibition
CC1(COc2ccc3c(c2)ncn3-c2ccc3cccc(N4CCC(N)CC4)c3n2)COC1 [Crenolanib (CP-868596), Crenolanib] | – | ≥ 50 | –
Cc1ccc(NC(=O)c2ccc(CN3CCN(C)CC3)cc2)cc1Nc1nc(-c2cccnc2)cs1 [Masitinib (AB1010), Masitinib] | – | ≥ 50 | –
COc1cc2ncnc(Nc3ccc(F)c(Cl)c3)c2cc1OCCCN1CCOCC1 [Gefitinib (Iressa), Gefitinib] | ≥ 50 | – | –
CS(=O)(=O)CCNCc1ccc(-c2ccc3ncnc(Nc4ccc(OCc5cccc(F)c5)c(Cl)c4)c3c2)o1 [Lapatinib Ditosylate] | – | ≥ 50 | –
C[S+](C)[O-] [DMSO, dimethyl sulfoxide] | – | – | Concentration toxic to KB-V1 cells ([6]; 1 µM calcein AM (data not shown)): ≥ 0.5 % (v/v)
CCOc1cc2ncc(C#N)c(Nc3ccc(F)c(Cl)c3)c2cc1NC(=O)/C=C/CN(C)C [Pelitinib] | – | ≥ 50 | –
C=CC(=O)Nc1cccc(Oc2nc(Nc3ccc(N4CCN(C)CC4)cc3OC)ncc2Cl)c1 [WZ4002] | ≥ 50 | – | –
CO[C@H]1C[C@@H]2CC[C@@H](C)[C@@](O)(O2)C(=O)C(=O)N2CCCC[C@H]2C(=O)O[C@H]([C@H](C)C[C@@H]2CC[C@@H](OC(=O)C(C)(CO)CO)[C@H](OC)C2)CC(=O)[C@H](C)/C=C(\C)[C@@H](O)[C@@H](OC)C(=O)[C@H](C)C[C@H](C)/C=C/C=C/C=C/1C [Temsirolimus] | ≥ 50 | – | –
CN(C)C(=O)CCSC(SCCC(=O)O)c1cccc(/C=C/c2ccc3ccc(Cl)cc3n2)c1 (stereo not shown) [MK-571] | – | – | Inhibition of ABCB1-mediated calcein AM efflux, flow cytometry [4]: neither ABCG2 specific inhibitor FTC nor ABCC1 specific inhibitor MK-571 interfered

SMILES | inhibition at 10 µM [2] [%] | inhibition at 10 µM [1, 10] [%] | also measured
CC[C@@H]1C(=O)N(C)c2cnc(Nc3ccc(C(=O)N[C@H]4CC[C@H](N5CCN(CC6CC6)CC5)CC4)cc3OC)nc2N1C(C)C [BI6727] | – | ≥ 50 | –
CCC/C=C/C=C/C(=O)O[C@H]1/C(=C/C(=O)OC)C[C@H]2C[C@H]([C@@H](C)O)OC(=O)C[C@H](O)C[C@@H]3C[C@H](OC(C)=O)C(C)(C)[C@](O)(C[C@@H]4C/C(=C/C(=O)OC)C[C@H](/C=C/C(C)(C)[C@]1(O)O2)O4)O3 [bryostatin-1, Bryostatin-1] | – | – | Inhibition of ABCB1-mediated calcein AM efflux, flow cytometry [4]: failed to inhibit; Inhibition of ABCB1-mediated calcein AM efflux in dose-response experiment ([1]; KB-V1 cells, 96-well plates, 1 µM calcein AM): failed to inhibit
Cc1cn(-c2cc(NC(=O)c3ccc(C)c(Nc4nccc(-c5cccnc5)n4)c3)cc(C(F)(F)F)c2)cn1 [Nilotinib] | ≥ 50 | – | –
S=C(NCc1ccc2c(c1)OCO2)N1CCN(c2ncnc3c2oc2ccccc23)CC1 [MP-470 (Amuvatinib), Amuvatinib] | – | ≥ 50 | –
COc1cc2c(Oc3ccc4[nH]c(C)cc4c3F)ncnc2cc1OCCCN1CCCC1 [Cediranib (AZD2171), Cediranib] | ≥ 50 | – | –
Cc1ccc(C(=O)N(CCCN)[C@@H](c2nc3cc(Cl)ccc3c(=O)n2Cc2ccccc2)C(C)C)cc1 [ispinesib] | – | – | Competition with [125I]IAAP for direct binding to ABCB1 [5]: marginal effect; IC50 [1]: 5.04 µM; Inhibition of ABCB1-mediated calcein AM efflux, flow cytometry [7]: inhibited; Inhibition of ABCB1-mediated calcein AM efflux in dose-response experiment [3]: dose-dependent inhibition
CO[C@H]1C[C@@H]2CC[C@@H](C)[C@@](O)(O2)C(=O)C(=O)N2CCCC[C@H]2C(=O)O[C@H]([C@H](C)C[C@@H]2CC[C@@H](O)[C@H](OC)C2)CC(=O)[C@H](C)/C=C(\C)[C@@H](O)[C@@H](OC)C(=O)[C@H](C)C[C@H](C)/C=C/C=C/C=C/1C [Rapamycin (Sirolimus), Rapamycin] | ≥ 50 | – | –
Cc1ccc(NC(=O)c2ccc(CN3CCN(C)CC3)cc2)cc1Nc1nccc(-c2cccnc2)n1 [Imatinib (STI571), Imatinib] | ≥ 50 | – | –
C=CC(=O)Nc1cc2c(Nc3ccc(F)c(Cl)c3)ncnc2cc1OCCCN1CCOCC1 [CI-1033 (Canertinib), Canertinib] | ≥ 50 | – | –
Cc1cnc(NC(=O)Nc2cc(Br)c(C)cc2OC[C@@H]2CNCCO2)cn1 [LY2603618] | ≥ 50 | – | –
COc1cc2c(cc1OC)CN(CCc1ccc(NC(=O)c3cc(OC)c(OC)cc3NC(=O)c3cnc4ccccc4c3)cc1)CC2 [XR9576, tariquidar] | – | – | IC50 [1]: 0.00728 µM; Concentration cytotoxic to cells ([6]; imaging assay (not shown)): > 1000 nM; Inhibition of MitoTracker Green FM efflux, flow cytometry [7]: blocked; Inhibition of ABCB1-mediated calcein AM efflux in dose-response experiment [3]: dose-dependent inhibition; Inhibition of MitoTracker Green FM efflux, cell imaging ([3]; human): inhibition on ABCB1-mediated efflux was detected; Effect on fluorescent calcein accumulation [8]: independent
C[C@@H](Oc1cc(-n2cnc3ccc(CN4CCN(C)CC4)cc32)sc1C(N)=O)c1ccccc1C(F)(F)F [GSK461364] | – | ≥ 50 | –
COc1cc(Nc2c(C#N)cnc3cc(OCCCN4CCN(C)CC4)c(OC)cc23)c(Cl)cc1Cl [Bosutinib (SKI-606), Bosutinib] | ≥ 50 | – | –
CN1CCN(CCOc2cc(OC3CCOCC3)c3c(Nc4c(Cl)ccc5c4OCO5)ncnc3c2)CC1 [AZD0530 (Saracatinib), Saracatinib] | – | ≥ 50 | –
CN(C)C/C=C/C(=O)Nc1cc2c(Nc3ccc(F)c(Cl)c3)ncnc2cc1O[C@H]1CCOC1 [BIBW2992 (Tovok)] | – | – | inhibition at 10 µM [1]: ≥ 50%
CC[C@@H]1C(=O)N(C)c2cnc(Nc3ccc(C(=O)NC4CCN(C)CC4)cc3OC)nc2N1C1CCCC1 [BI 2536] | – | – | IC50 at 48 h [9]: 1.28 µM
